US20150368242A1, “NOVEL TETRAHYDROPYRIDOPYRIMIDINONE DERIVATIVE” (Ajinomoto Co., Inc., priority 2013, published 2015)
Structures can show the parent of a compound that is named as a salt. Where two headings read alike, the source gives them in different places.

Biological target: T1, recombinant human MGAT2 enzyme (Homo sapiens, UniProt Q3SYC2)
T1 construct: made in house; host or cells: CHO-K1 (Jump-In CHO-K1 Kit, Life Technologies); microsomal fraction used as the enzyme solution
Assay: Test for human MGAT2 activity inhibitory action (14C-oleoyl CoA, recombinant enzyme microsomes)
Assay type: biochemical
Design: key to Potency relative to Comparative Example 1 (higher = more potent): % inhibition = {1−(C−B)/(A−B)}×100, B = 10 μM Comparative Example 1
Settings: for IC50: read-out: IC50
Method: The human MGAT2 gene described in Am. J. Physiol. Endocrinol. Metab. 285: E927-E937, 2003 was expressed using Jump-In™ CHO-K1 Kit (Life technologies) as described in the attached manual. The cells were suspended in a buffer containing Tris-hydrochloric acid (pH 7.4) at a final concentration of 1 mM, 1 mM ethylenediaminetetraacetic acid, 1 mM dithiothreitol, 250 mM sucrose, and complete protease inhibitor cocktail (Roche applied Science), and then disrupted using a Teflon homogenizer (AS ONE Corporation), followed by centrifugation at 130 g for 10 minutes. The supernatant was further centrifuged at 100,000 g for 1 hour to obtain a pellet as microsomes containing the recombinant enzyme, and a solution obtained by suspending this pellet at a protein concentration of about 800 to 1900 μg/ml was used as an MGAT recombinant enzyme solution.
To a buffer containing 50 mM Tris-hydrochloric acid (pH 7.4), 6 mM magnesium chloride, and 2 mg/mL bovine serum albumin, a test compound was added, and the final concentration of dimethyl sulfoxide was adjusted to 0.3%. Moreover, 2-monooleoyl glycerol, oleoyl CoA, 1-^14C-oleoyl CoA (Perkin Elmer), and orlistat (SIGMA) were added at final concentrations of 50 μM, 50 μM, 2.2 μM, and 8.3 μM, respectively, followed by incubation at 37° C. for 10 minutes. After 10 minutes, the recombinant human MGAT2 enzyme solution was added at a final concentration of 0.67 μg/mL, and the reaction was started, with the amount of the reaction solution being 150 μl. The reaction was carried out at 37° C. for 30 minutes.
After 30 minutes, the reaction was stopped by adding 300 μl of isopropanol:heptane:water=(80:20:2) to the reaction liquid. Further, 200 μl of heptane and 100 μl of water were added, followed by stirring. Then, 100 μl of the upper layer was transferred to a 96-well plate (Corning), and mixed with 100 μl of liquid scintillator (LumaSafe Plus, Lumac). Then, the ^14C count was quantitatively determined using TopCount NXT™ microplate scintillation luminescence counter (Perkin Elmer).
The ^14C count in a case where no test compound was added was defined as A, the ^14C count in a case where 10 μM of the compound (Comparative Example 1) of Example No. 8 of WO2008/038768 was added was defined as B, and the ^14C count in the case where the test compound was added was taken as C. For this case, {1−(C−B)/(A−B)}×100(%) was calculated as the human MGAT2 activity inhibition ratio of the test compound (shown in the column named vs Comp. Ex. 1 in the following Table). A greater value of the “vs Comparative Example 1” means that the MGAT2 activity inhibitory action of the compound of Example was higher as compared to the MGAT2 activity inhibitory action of the compound of Comparative Example 1 (i.e., the human MGAT2 activity inhibition ratio was higher). […] Since this evaluation test was conducted for two separate groups, the test results of the two groups are shown separately in Table (First Test) and Table 4 (Second Test).
Next, the compounds of Examples 25 to 60 of the present invention were also investigated for their pharmacological action by using the same method as in Examples 1 to 24. […] Note that, a comparative evaluation test against the compound of Comparative Example 1 was conducted for each of the compounds of Examples (in every measurement of the inhibitory activity of the compounds of Examples 25 to 60, the inhibitory activity of the compound of Comparative Example 1 was measured). The 50% inhibition concentrations of Comparative Example 1 in the measurement of the inhibitory activities of the compounds of Examples 25 to 60 were shown in Table 5 as “IC50 (nM) of Comparative Example 1.”

[1] = Second Test (Table 4), relative to Comparative Example 1
[2] = Table 5, Examples 25 to 60, same method
[3] = Table 5, relative to Comparative Example 1 measured in the same run

T1 sequence (Q3SYC2 whole entry): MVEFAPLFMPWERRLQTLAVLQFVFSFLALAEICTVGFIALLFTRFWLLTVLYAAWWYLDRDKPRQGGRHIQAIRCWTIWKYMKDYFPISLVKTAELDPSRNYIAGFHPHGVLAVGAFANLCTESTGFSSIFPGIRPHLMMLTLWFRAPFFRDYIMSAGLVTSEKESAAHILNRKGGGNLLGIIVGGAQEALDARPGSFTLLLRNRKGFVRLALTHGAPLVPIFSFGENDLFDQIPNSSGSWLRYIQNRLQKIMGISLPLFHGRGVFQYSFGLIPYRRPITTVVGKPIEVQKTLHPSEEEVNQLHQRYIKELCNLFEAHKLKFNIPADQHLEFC

Row | Structure (SMILES) | IC50 (Second Test (Table 4)) [nM] | Potency relative to Comparative Example 1 (higher = more potent) [1] | IC50 [2] [nM] | Potency relative to Comparative Example 1 (higher = more potent) [3]
1 | O=C(CCNCc1cc2ccccc2[nH]1)N1CCc2nc(SC3CCC3)n(-c3ccccc3)c(=O)c2C1 [Example 21, 2-cyclobutylsulfanyl-6-[3-(1H-indol-2-ylmethylamino)propanoyl]-3-phenyl-7,8-dihydro-5H-pyrido[4,3-d]pyrimidin-4-one trifluoroacetate] | 1.2 | 246 | – | –
2 | O=C(CCCNCc1ccc(C(F)(F)F)cc1)N1CCc2nc(SC3CCC3)n(-c3ccccc3)c(=O)c2C1 [Example 22, 2-cyclobutylsulfanyl-3-phenyl-6-[4-[[4-trifluoromethyl)phenyl]methylamino]butanoyl]-7,8-dihydro-5H-pyrido[4,3-d]pyrimidin-4-one trifluoroacetate] | 3.8 | 79 | – | –
3 | O=C(CCNCCc1c[nH]c2ccccc12)N1CCc2nc(SC3CCC3)n(-c3ccccc3)c(=O)c2C1 [Example 23, 2-cyclobutylsulfanyl-6-[3-[2-(1H-indol-3-yl)ethylamino]propanoyl]-3-phenyl-7,8-dihydro-5H-pyrido[4,3-d]pyrimidin-4-one trifluoroacetate)] | 1.6 | 193 | – | –
4 | O=C(CCNCc1ccc(OC(F)(F)F)cc1)N1CCc2nc(SC3CCC3)n(-c3ccccc3)c(=O)c2C1 [Example 24, 2-cyclobutylsulfanyl-3-phenyl-6-[3-[[4-(trifluoromethoxy)phenyl]methylamino]propanoyl]-7,8-dihydro-5H-pyrido[4,3-d]pyrimidin-4-one trifluoroacetate)] | 1.4 | 221 | – | –
5 | [2H]c1c([2H])c([2H])c(C([2H])([2H])NCCC(=O)N2CCc3nc(SC4CCC4)n(-c4ccccc4)c(=O)c3C2)c([2H])c1[2H] [Example 25, 2-cyclobutylsulfanyl-6-[3-[[dideuterio-(2,3,4,5,6-pentadeuteriophenyl)methyl]amino]propanoyl]-3-phenyl-7,8-dihydro-5H-pyrido[4,3-d]pyrimidin-4-one trifluoroacetate] | – | – | 2.2 | 111
6 | Cc1cc2cccc(CNCCC(=O)N3CCc4nc(SC5CCC5)n(-c5ccccc5)c(=O)c4C3)c2o1 [Example 26, 2-cyclobutylsulfanyl-6-[3-[(2-methylbenzofuran-7-yl)methylamino]propanoyl]-3-phenyl-7,8-dihydro-5H-pyrido[4,3-d]pyrimidin-4-one trifluoroacetate] | – | – | 1 | 196
7 | O=C(CCNCc1ccc2c(c1)OCO2)N1CCc2nc(SC3CCC3)n(-c3ccccc3)c(=O)c2C1 [Example 28, 6-[3-(1,3-benzodioxol-5-ylmethylamino)propanoyl]-2-cyclobutylsulfanyl-3-phenyl-7,8-dihydro-5H-pyrido[4,3-d]pyrimidin-4-one trifluoroacetate] | – | – | 1.7 | 125
8 | O=C(CCNCC(O)c1ccccc1)N1CCc2nc(SC3CCC3)n(-c3ccccc3)c(=O)c2C1 (stereo not drawn) [Example 29, 2-cyclobutylsulfanyl-6-[3-[(2-hydroxy-2-phenyl-ethyl)amino]propanoyl]-3-phenyl-7,8-dihydro-5H-pyrido[4,3-d]pyrimidin-4-one trifluoroacetate] | – | – | 1.5 | 138
9 | O=C(CCNCCc1ccc(O)cc1)N1CCc2nc(SC3CCC3)n(-c3ccccc3)c(=O)c2C1 [Example 30, 2-cyclobutylsulfanyl-6-[3-[2-(4-hydroxyphenyl)ethylamino]propanoyl]-3-phenyl-7,8-dihydro-5H-pyrido[4,3-d]pyrimidin-4-one trifluoroacetate] | – | – | 3 | 69
10 | CN(C)c1ccc(CNCCC(=O)N2CCc3nc(SC4CCC4)n(-c4ccccc4)c(=O)c3C2)cc1 [Example 31, 2-cyclobutylsulfanyl-6-[3-[(4-dimethylaminophenyl)methylamino]propanoyl]-3-phenyl-7,8-dihydro-5H-pyrido[4,3-d]pyrimidin-4-one trifluoroacetate] | – | – | 1.6 | 130
11 | O=C(CCNCc1ccc2c(c1)CCO2)N1CCc2nc(SC3CCC3)n(-c3ccccc3)c(=O)c2C1 [Example 32, 2-cyclobutylsulfanyl-6-[3-(2,6-dihydrobenzofuran-5-ylmethylamino)propanoyl]-3-phenyl-7,8-dihydro-5H-pyrido[4,3-d]pyrimidin-4-one trifluoroacetate] | – | – | 1.3 | 166
12 | O=C(CCNCCCCCOc1ccc(C(F)(F)F)cc1)N1CCc2nc(SC3CCC3)n(-c3ccccc3)c(=O)c2C1 [Example 33, 2-cyclobutylsulfanyl-3-phenyl-6-[3-[5-[4-(trifluoromethyl)phenoxy]pentylamino]propanoyl]-7,8-dihydro-5H-pyrido[4,3-d]pyrimidin-4-one trifluoroacetate] | – | – | 0.8 | 228
13 | O=C(CCNCc1nc(Cc2ccccc2)no1)N1CCc2nc(SC3CCC3)n(-c3ccccc3)c(=O)c2C1 [Example 34, 6-[3-[(3-benzyl-1,2,4-oxadiazol-5-yl)methylamino]propanoyl]-2-cyclobutylsulfanyl-3-phenyl-7,8-dihydro-5H-pyrido[4,3-d]pyrimidin-4-one trifluoroacetate] | – | – | 3.2 | 47
14 | O=C(CCNCc1c(F)cccc1F)N1CCc2nc(SC3CCC3)n(-c3ccccc3)c(=O)c2C1 [Example 35, 2-cyclobutylsulfanyl-6-[3-[(2,6-difluorophenyl)methylamino]propanoyl]-3-phenyl-7,8-dihydro-5H-pyrido[4,3-d]pyrimidin-4-one trifluoroacetate] | – | – | 1.1 | 130
15 | C[C@@H](CNCCC(=O)N1CCc2nc(SC3CCC3)n(-c3ccccc3)c(=O)c2C1)c1ccccc1 [Example 36] | – | – | 0.7 | 205
16 | C[C@H](CNCCC(=O)N1CCc2nc(SC3CCC3)n(-c3ccccc3)c(=O)c2C1)c1ccccc1 [Example 37, 2-cyclobutylsulfanyl-3-phenyl-6-[3-[[(2S)-2-phenylpropyl]amino]propanoyl]-7,8-dihydro-5H-pyrido[4,3-d]pyrimidin-4-one trifluoroacetate] | – | – | 0.5 | 273
17 | O=C(CCNCCNc1ccccc1)N1CCc2nc(SC3CCC3)n(-c3ccccc3)c(=O)c2C1 [Example 38, 6-[3-(2-aminolinoethylamino)propanoyl]-2-cyclobutylsulfanyl-3-phenyl-7,8-dihydro-5H-pyrido[4,3-d]pyrimidin-4-one trifluoroacetate] | – | – | 1.4 | 211
18 | O=C(CCNCC1CCCC(C(F)(F)F)C1)N1CCc2nc(SC3CCC3)n(-c3ccccc3)c(=O)c2C1 (stereo not drawn) [Example 39, 2-cyclobutylsulfanyl-3-phenyl-6-[3-[[3-(trifluoromethyl)cyclohexyl]methylamino]propanoyl]-7,8-dihydro-5H-pyrido[4,3-d]pyrimidin-4-one trifluoroacetate] | – | – | 0.4 | 320
